Test results published in US8796466B2, “Hepatitis C virus inhibitors” (Bristol-Myers Squibb Company, priority 2009, dated 2014).
Where two headings read alike, the source gives them in different places.

Tests used:
[1] = tested on: HCV 1b genotype; assay: HCV Replicon assay (HCV 1b genotype); format: cell-based, Hepatitis C virus; details: HCV 1b genotype replicon, class symbol, read-out: Range (EC50 values against HCV 1b)
Outline: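 HCV-neo replicon cells, wild-type plus lines carrying NS5A-region mutations, were exposed to compound; luciferase-reporter replicon variants were also used.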

[2] = tested on: HCV; details: literature references; cited from earlier work

Compound | EC50 ([1]; Hepatitis C virus) | further results
O=C([C@H](O)c1ccccc1)N1CCC[C@H]1c1nc(-c2ccc(COCc3cccc(-c4c[nH]c([C@@H]5CCCN5C(=O)[C@H](O)c5ccccc5)n4)c3)cc2)c[nH]1 [OL-21, (1R)-2-((2S)-2-(4-(3-(((4-(2-((2S)-1-((2R)-2-hydroxy-2-phenylacetyl)-2-pyrrolidinyl)-1H-imidazol-4-yl)benzyl)oxy)methyl)phenyl)-1H-imidazol-2-yl)-1-pyrrolidinyl)-2-oxo-1-phenylethanol] | 0.1 to 0.99 nM | –
COC(=O)N[C@@H](C(=O)N1CCC[C@H]1c1nc(-c2ccc(COCc3cccc(-c4c[nH]c([C@@H]5CCCN5C(=O)[C@H](NC(=O)OC)c5ccccc5)n4)c3)cc2)c[nH]1)c1ccccc1 [OL-22] | – | EC50 [1]: 0.002 to 0.099 nM
CNC(=O)N[C@@H](C(=O)N1CCC[C@H]1c1nc(-c2ccc(COCc3cccc(-c4c[nH]c([C@@H]5CCCN5C(=O)[C@H](NC(=O)NC)c5ccccc5)n4)c3)cc2)c[nH]1)c1ccccc1 [OL-23, 1-methyl-3-((1R)-2-((2S)-2-(4-(3-(((4-(2-((2S)-1-((2R)-2-((methylcarbamoyl)amino)-2-phenylacetyl)-2-pyrrolidinyl)-1H-imidazol-4-yl)benzyl)oxy)methyl)phenyl)-1H-imidazol-2-yl)-1-pyrrolidinyl)-2-oxo-1-phenylethyl)urea] | 0.1 to 0.99 nM | –
CCNC(=O)N[C@@H](C(=O)N1CCC[C@H]1c1nc(-c2ccc(COCc3cccc(-c4c[nH]c([C@@H]5CCCN5C(=O)[C@H](NC(=O)NCC)c5ccccc5)n4)c3)cc2)c[nH]1)c1ccccc1 [OL-24, 1-ethyl-3-((1R)-2-((2S)-2-(4-(3-(((4-(2-((2S)-1-((2R)-2-((ethylcarbamoyl)amino)-2-phenylacetyl)-2-pyrrolidinyl)-1H-imidazol-4-yl)benzyl)oxy)methyl)phenyl)-1H-imidazol-2-yl)-1-pyrrolidinyl)-2-oxo-1-phenylethyl)urea] | 0.002 to 0.099 nM | –
O=C(NC1CCCC1)N[C@@H](C(=O)N1CCC[C@H]1c1nc(-c2ccc(COCc3cccc(-c4c[nH]c([C@@H]5CCCN5C(=O)[C@H](NC(=O)NC5CCCC5)c5ccccc5)n4)c3)cc2)c[nH]1)c1ccccc1 [OL-25, 1-cyclopentyl-3-((1R)-2-((2S)-2-(4-(3-(((4-(2-((2S)-1-((2R)-2-((cyclopentylcarbamoyl)amino)-2-phenylacetyl)-2-pyrrolidinyl)-1H-imidazol-4-yl)benzyl)oxy)methyl)phenyl)-1H-imidazol-2-yl)-1-pyrrolidinyl)-2-oxo-1-phenylethyl)urea] | 0.002 to 0.099 nM | –
COC(=O)N[C@H](C(=O)N1[C@@H]2C[C@@H]2C[C@H]1c1nc(-c2ccc([C@@H]3C[C@H]3c3ccc(-c4c[nH]c([C@@H]5C[C@H]6C[C@H]6N5C(=O)[C@@H](NC(=O)OC)C(C)C)n4)cc3)cc2)c[nH]1)C(C)C [m9.5, methyl ((1S)-1-(((1R,3S,5R)-3-(4-(4-((1R,2R)-2-(4-(2-((1R,3S,5R)-2-((2S)-2-((methoxycarbonyl)amino)-3-methylbutanoyl)-2-azabicyclo[3.1.0]hex-3-yl)-1H-imidazol-4-yl)phenyl)cyclopropyl)phenyl)-1H-imidazol-2-yl)-2-azabicyclo[3.1.0]hex-2-yl)carbonyl)-2-methylpropyl)carbamate] | 0.002 to 0.099 nM | –
cyclosporin A | – | activity against HCV in clinical trials [2]: active against HCV
